US20240239790A1, “7-Morpholino-1,6-Naphthyridin-5-yl Derivatives and Pharmaceutical Compositions Thereof Useful as DNA-PK Inhibitor” (adMare Therapeutics Society, priority 2021, published 2024)
Read-outs that look alike come from different tables or passages of the source.

How the values were obtained:
[1] = system: FaDu tumour xenograft; assay: Tumour Growth Delay, FaDu tumour xenograft-bearing animals, compound ± radiation (TGD-ER); format: in vivo; settings: PO
Experimental: FaDu tumour xenograft-bearing animals were monitored for tumour growth and once average tumour size reached approximately 100-250 mm3, animals were assigned to treatment cohorts using stratified randomization. […]
For BID dosing regimens, at 8 h following the first injection, animals were again administered with test compound at the same dose as their previous administration. Animals were weighed and had tumours measured using calipers three times weekly until the endpoint of maximum tumour volume, 1000 mm3, was reached and animals were euthanized. Tumour volumes were calculated according to the equation L×W^2/2 with the length (mm) being the longer axis of the tumour; in the case that no tumour was palpable, tumour volumes were recorded as 0 mm^3.
Data were calculated as tumour growth normalized to day 0 measurements, with time to tumour doubling determined. Average time to tumour doubling for each group was used to determine a Tumour Growth Delay Enhancement Ratio (TGD-ER): the time to doubling for treatment groups were divided by the time to doubling for irradiation-alone groups to determine group-specific TGD-ER values, and these were assigned scores based on defined response ranges: values>2.5=A, 1-2.5=B, <1=C.

[2] = Pharmacokinetic study in male Sprague-Dawley rats (IV and PO), plasma; format: in vivo, rat; settings: for AUC(0-t) / Cmax at 5 min / half-life / AUC(0-inf): male, Sprague-Dawley; for AUC(0-t) / Cmax at 5 min / half-life / AUC(0-inf) / AUC—% Extrap—obs / Cl_obs / Vz_obs: rat plasma; for AUC(0-inf): read-out: AUCINF—obs; for F: rat
Experimental: Pharmacokinetic studies were conducted to estimate plasma concentrations obtained after oral gavage (PO) and intravenous (IV) single administration of compounds administered to male Sprague-Dawley rats. Six (6) rats were administered for each compound, route and dose, and plasma was collected at 12 timepoints over a 24 hr period for IV, and 12 timepoints over a 48 hr period for PO. Note that plasma was collected from only 3 animals per timepoint (n=3 for timepoints up to 10 hours, and n=3 for timepoints from 16 h to end of study). Dosing volumes were 5 mL/kg for IV and 10 mL/kg for PO gavage. IV compounds for administration were in solutions, whereas PO compounds were in solution or suspension.
(§1) The in-vivo study plasma samples were analyzed using Ultra Performance Liquid Chromatography (UPLC) with tandem mass spectrometry (MS/MS) detection in multiple reaction monitoring (MRM) mode. A generic bioanalytical method involving plasma sample extraction and cleanup by protein precipitation with acetonitrile was used followed by UPLC-MS/MS analysis.
(§2) A brief example of a generic bioanalytical UPLC-MS/MS method used for analysis of compounds in the in-vivo study plasma samples is as follows. Plasma samples were spiked with internal standard prior to extraction and cleanup by protein precipitation with ice cold acetonitrile containing 0.1% (v/v) ammonium hydroxide at a ratio of 3:1 (solvent:plasma) and centrifuged at 18213 rcf for 15 minutes at 4° C. to pellet precipitates. Aliquots of supernatants were transferred to a 96-well plate and evaporated to dryness at 40° C. under a stream of nitrogen gas. Samples were reconstituted in 50:50 acetonitrile/10 mM ammonium acetate buffer pH 8, mixed thoroughly and analyzed using Ultra Performance Liquid Chromatography (UPLC) with tandem mass spectrometry (MS/MS) detection in multiple reaction monitoring (MRM) mode. Matrix-matched calibration standards and quality control (QC) samples were prepared in naïve C57Bl/6 mouse plasma. The UPLC column used was Waters Acquity UPLC BEH C18 1.7 um, 2.1 mm×50 mm (with guard column). The UPLC mobile phase consisted of: Mobile phase A: 10 mM ammonium acetate in Water pH 8, and Mobile phase B: Acetonitrile. Separation was accomplished with a linear gradient of 5% mobile phase B to 95% mobile phase B in 2 min, and a flow rate of 0.35 mL/min. The MS/MS data acquisition was accomplished using 3 MRM Transitions in ESI+ mode. Parent ion mass 508.37 m/z-to-Daughter ions (m/z) 117.05, 232.13 and 270.22. The quantitation of concentrations in test samples was achieved by matrix-matched calibration with normalization using an internal standard. Data acquisition and analysis were performed using Waters MassLynx software with TargetLynx application manager.
(§3) Estimation of PK parameters was performed using independent noncompartmental model method by PHOENIX WinNonlin software.

[3] = Pharmacokinetic study in male Beagle dogs (IV and PO), plasma; format: in vivo, dog; settings: for AUC—% Extrap—obs / Cl_obs / Vz_obs / AUC(0-t) / half-life / AUC(0-inf) / Cmax: dog plasma; for F: dog; for AUC(0-t) / half-life / AUC(0-inf) / Cmax: male, Beagle; for AUC(0-inf): read-out: AUCINF—obs; for Cmax: read-out: Cmax (5 min)
Experimental: Pharmacokinetic studies were conducted to estimate plasma concentrations obtained after oral gavage (PO) and intravenous (IV) single administration of compounds administered to separate groups of male Beagle dogs. Three (3) dogs were administered a compound via the intravenous (IV) route at 3 mg/kg and 2.5 mL/kg, and plasma was collected at 12 timepoints over a 24-hour period. Following a 7 days washout period, the same dogs were administered the same compound via PO at 10 mg/kg and 5 mL/kg, and plasma was collected at 12 timepoints over a 48-hour period.
as §1, §2, §3

O=C(COc1cnc(N[C@H]2CC[C@@H](Oc3nc(N4CCOCC4)cc4ncccc34)CC2)nc1)N1CCC1 [Compound 75, 1-(Azetidin-1-yl)-2-((2-(((1s,4s)-4-((7-morpholino-1,6-naphthyridin-5-yl)oxy)cyclohexyl)amino)pyrimidin-5-yl)oxy)ethan-1-one]
TGD-ER Range Score ([1]; 30 mpk BID + 10 Gy): B (1-2.5=B)

CN1CCN(CCOc2cnc(N[C@H]3CC[C@@H](Oc4nc(N5CCOCC5)cc5ncccc45)CC3)nc2)CC1 [Compound 69, 5-(2-(4-Methylpiperazin-1-yl)ethoxy)-N-((1s,4s)-4-((7-morpholino-1,6-naphthyridin-5-yl)oxy)cyclohexyl)pyrimidin-2-amine]
AUC(0-t) ([2]; IV, 3 mg/kg): 488 ng·h/mL
Cmax at 5 min ([2]; IV, 3 mg/kg): 183 ng/mL
half-life ([2]; IV, 3 mg/kg): 4.82 h
AUC(0-inf) ([2]; IV, 3 mg/kg): 501 ng·h/mL
AUC(0-t) ([2]; PO, 3 mg/kg): 305 ng·h/mL
Cmax at 5 min ([2]; PO, 3 mg/kg): 27.2 ng/mL
half-life ([2]; PO, 3 mg/kg): 2.81 h
AUC(0-inf) ([2]; PO, 3 mg/kg): 308 ng·h/mL
AUC(0-t) ([2]; PO, 10 mg/kg): 1550 ng·h/mL
Cmax at 5 min ([2]; PO, 10 mg/kg): 140 ng/mL
half-life ([2]; PO, 10 mg/kg): 3.23 h
AUC(0-inf) ([2]; PO, 10 mg/kg): 1570 ng·h/mL
AUC(0-t) ([2]; PO, 30 mg/kg): 5870 ng·h/mL
Cmax at 5 min ([2]; PO, 30 mg/kg): 482 ng/mL
half-life ([2]; PO, 30 mg/kg): 6.47 h
AUC(0-inf) ([2]; PO, 30 mg/kg): 5890 ng·h/mL
AUC—% Extrap—obs ([2]; IV, 3 mg/kg): 2.61%
Cl_obs ([2]; IV, 3 mg/kg): 99.8872 mL/min/kg
Vz_obs ([2]; IV, 3 mg/kg): 41.64841 L/kg
AUC—% Extrap—obs ([2]; PO, 3 mg/kg): 1.07%
Cl_obs ([2]; PO, 3 mg/kg): 162.417 mL/min/kg
Vz_obs ([2]; PO, 3 mg/kg): 39.5678 L/kg
AUC—% Extrap—obs ([2]; PO, 10 mg/kg): 1.16%
Cl_obs ([2]; PO, 10 mg/kg): 106.252 mL/min/kg
Vz_obs ([2]; PO, 10 mg/kg): 29.72118 L/kg
AUC—% Extrap—obs ([2]; PO, 30 mg/kg): 0.37%
Cl_obs ([2]; PO, 30 mg/kg): 84.9088 mL/min/kg
Vz_obs ([2]; PO, 30 mg/kg): 47.52784 L/kg
F ([2]; PO, 3 mg/kg): 62%
F ([2]; PO, 10 mg/kg): 95%
F ([2]; PO, 30 mg/kg): 120%
AUC—% Extrap—obs ([3]; IV, 3 mg/kg): 23.94%
Cl_obs ([3]; IV, 3 mg/kg): 32.4562 mL/min/kg
Vz_obs ([3]; IV, 3 mg/kg): 37.41197 L/kg
AUC—% Extrap—obs ([3]; PO, 10 mg/kg): 9.05%
Cl_obs ([3]; PO, 10 mg/kg): 27.6643 mL/min/kg
Vz_obs ([3]; PO, 10 mg/kg): 32.69379 L/kg
F ([3]; PO, 10 mg/kg): 143%
AUC(0-t) ([3]; IV, 3 mg/kg): 1180 ng·h/mL
half-life ([3]; IV, 3 mg/kg): 13.3 h
AUC(0-inf) ([3]; IV, 3 mg/kg): 1560 ng·h/mL
Cmax ([3]; IV, 3 mg/kg): 397 ng/mL
AUC(0-t) ([3]; PO, 10 mg/kg): 5640 ng·h/mL
half-life ([3]; PO, 10 mg/kg): 13.8 h
AUC(0-inf) ([3]; PO, 10 mg/kg): 6220 ng·h/mL
Cmax ([3]; PO, 10 mg/kg): 291 ng/mL
TGD-ER Range Score ([1]; 30 mpk + @4 h 10 Gy): C (<1=C)
TGD-ER Range Score ([1]; 30 mpk BID + 10 Gy): B (1-2.5=B)
TGD-ER Range Score ([1]; 100 mpk + @4 h 10 Gy): B (1-2.5=B)
TGD-ER Range Score ([1]; (30 mpk + 2 Gy) Q5D): A (values>2.5=A)
TGD-ER Range Score ([1]; (30 mpk) Q5D): C (<1=C)

CN(C)C(=O)COc1cnc(N[C@H]2CC[C@@H](Oc3nc(N4CCOCC4)cc4ncccc34)CC2)nc1 [Compound 54, N,N-Dimethyl-2-((2-(((1s,4s)-4-((7-morpholino-1,6-naphthyridin-5-yl)oxy)cyclohexyl)amino)pyrimidin-5-yl)oxy)acetamide]
TGD-ER Range Score ([1]; 10 mpk + 10 Gy): B (1-2.5=B)
TGD-ER Range Score ([1]; 30 mpk + 10 Gy): A (values>2.5=A)
TGD-ER Range Score ([1]; 100 mpk + 10 Gy): B (1-2.5=B)

CN(C)C(=O)Cn1ccc2nc(N[C@H]3CC[C@@H](Oc4nc(N5CCOCC5)cc5ncccc45)CC3)ncc21 [Compound 86, N,N-Dimethyl-2-(2-(((1s,4s)-4-((7-morpholino-1,6-naphthyridin-5-yl)oxy)cyclohexyl)amino)-5H-pyrrolo[3,2-d]pyrimidin-5-yl)acetamide]
AUC(0-t) ([2]; IV, 3 mg/kg): 371 ng·h/mL
Cmax at 5 min ([2]; IV, 3 mg/kg): 886 ng/mL
half-life ([2]; IV, 3 mg/kg): 0.67 h
AUC(0-inf) ([2]; IV, 3 mg/kg): 374 ng·h/mL
AUC(0-t) ([2]; PO, 3 mg/kg): 71.6 ng·h/mL
Cmax at 5 min ([2]; PO, 3 mg/kg): 28.2 ng/mL
half-life ([2]; PO, 3 mg/kg): 2.59 h
AUC(0-inf) ([2]; PO, 3 mg/kg): 78.4 ng·h/mL
AUC(0-t) ([2]; PO, 10 mg/kg): 1290 ng·h/mL
Cmax at 5 min ([2]; PO, 10 mg/kg): 203 ng/mL
half-life ([2]; PO, 10 mg/kg): 2.39 h
AUC(0-inf) ([2]; PO, 10 mg/kg): 1490 ng·h/mL
AUC(0-t) ([2]; PO, 30 mg/kg): 14100 ng·h/mL
Cmax at 5 min ([2]; PO, 30 mg/kg): 1600 ng/mL
half-life ([2]; PO, 30 mg/kg): 1.26 h
AUC(0-inf) ([2]; PO, 30 mg/kg): 14100 ng·h/mL
AUC—% Extrap—obs ([2]; IV, 3 mg/kg): 0.91%
Cl_obs ([2]; IV, 3 mg/kg): 133.623 mL/min/kg
Vz_obs ([2]; IV, 3 mg/kg): 7.72522 L/kg
AUC—% Extrap—obs ([2]; PO, 3 mg/kg): 8.66%
Cl_obs ([2]; PO, 3 mg/kg): 637.8442 mL/min/kg
Vz_obs ([2]; PO, 3 mg/kg): 142.79445 L/kg
AUC—% Extrap—obs ([2]; PO, 10 mg/kg): 13.08%
Cl_obs ([2]; PO, 10 mg/kg): 111.962 mL/min/kg
Vz_obs ([2]; PO, 10 mg/kg): 23.13291 L/kg
AUC—% Extrap—obs ([2]; PO, 30 mg/kg): 0.0%
Cl_obs ([2]; PO, 30 mg/kg): 35.5335 mL/min/kg
Vz_obs ([2]; PO, 30 mg/kg): 3.87755 L/kg
F ([2]; PO, 3 mg/kg): 19%
F ([2]; PO, 10 mg/kg): 105%
F ([2]; PO, 30 mg/kg): 379%
AUC—% Extrap—obs ([3]; IV, 3 mg/kg): 5.80%
Cl_obs ([3]; IV, 3 mg/kg): 28.2873 mL/min/kg
Vz_obs ([3]; IV, 3 mg/kg): 28.9956 L/kg
AUC—% Extrap—obs ([3]; PO, 10 mg/kg): 0.51%
Cl_obs ([3]; PO, 10 mg/kg): 28.6397 mL/min/kg
Vz_obs ([3]; PO, 10 mg/kg): 6.54871 L/kg
F ([3]; PO, 10 mg/kg): 105%
AUC(0-t) ([3]; IV, 3 mg/kg): 1730 ng·h/mL
half-life ([3]; IV, 3 mg/kg): 13.1 h
AUC(0-inf) ([3]; IV, 3 mg/kg): 1850 ng·h/mL
Cmax ([3]; IV, 3 mg/kg): 1730 ng/mL
AUC(0-t) ([3]; PO, 10 mg/kg): 6090 ng·h/mL
half-life ([3]; PO, 10 mg/kg): 2.62 h
AUC(0-inf) ([3]; PO, 10 mg/kg): 6130 ng·h/mL
Cmax ([3]; PO, 10 mg/kg): 1540 ng/mL
TGD-ER Range Score ([1]; 30 mpk BID + 10 Gy): B (1-2.5=B)
TGD-ER Range Score ([1]; (30 mpk + 2 Gy) Q5D): A (values>2.5=A)
TGD-ER Range Score ([1]; (30 mpk) Q5D): B (1-2.5=B)
